Where only a bound is given, the exact number is not on record here.

Experimental findings from patent publication US12459921B2, “Isoindoline compound, preparation method, pharmaceutical composition and use thereof” (SHANGHAI INSTITUTE OF MATERIA MEDICA, CHINESE ACADEMY OF …, priority 2018, dated 2025) are described below.

The test system of the test is MM.1S cells. The test can be described thus: Inhibitory effect on the proliferation of MM.1S, MTS cell viability test. The test is classed as cell-based. Conditions: Homo sapiens, MM1.S, 168 h, multiple myeloma MM.1S cells, 7 days incubation, read-out: Tumor cell inhibitory activity. In short, it runs like this: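 MM.1S cells (20,000/well, RPMI 1640 with 10% FBS) exposed to 5-fold compound dilutions at 0.2% DMSO for 7 days at 37° C, 5% CO2. MTS added for 3-4 h; OD490-OD690 gave inhibition versus DMSO, IC50 fitted, mean of three experiments.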
For orientation: Tetrazolium assays rely on reduction of a dye to a coloured formazan, in cell work by metabolically active cells.
As for `O=C1CCC(N2Cc3c(CCCCCN4CCCc5cc(Br)ccc54)cccc3C2=O)C(=O)N1` (stereo not shown) [Example 106, 3-(4-(5-(6-bromo-3,4-dihydroquinoline-1(2H))pentyl)-1-oxoisoindoline-2-)piperidine-2,6-dione], the IC50 lay in the range of 100 to 1000 nM. In the case of `N#CC1(c2cccc(OC(F)(F)F)c2)CCN(CCCOc2cccc3c2CN(C2CCC(=O)NC2=O)C3=O)CC1` (stereo not shown) [Example 71, 1-(3-((2-(2,6-dioxopiperidine-3-)-1-oxoisoindoline-4-)oxy)propyl)-4-(3-trifluoromethoxyphenyl)piperidine-4-carbonitrile] it was less than 100 nM. In the case of `N#CC1(c2ccccc2Cl)CCN(CCCCCCc2cccc3c2CN(C2CCC(=O)NC2=O)C3=O)CC1` (stereo not shown) [Example 98, 4-(2-chlorophenyl)-1-(6-(2-(2,6-dioxopiperidine-3-)-1-oxoisoindoline-4-)hexyl)piperidine-4-carbonitrile] it was less than 100 nM; in that of `O=C1CCC(N2Cc3c(CCCCCN4CCc5ccccc5C4)cccc3C2=O)C(=O)N1` (stereo not shown) [Example 113, 3-(4-(5-(3,4-dihydroisoquinoline-2(1H)-)pentyl)-1-oxoisoindoline-2-)piperidine-2,6-dione], 100 to 1000 nM.

In the case of `C[C@]1(N2C(=O)c3cccc(OCCCN4CCC(C#N)(c5ccccc5OC(F)(F)F)CC4)c3C2=O)CCC(=O)NC1=O` [Example 58, (S)-1-(3-((2-(3-methyl-2,6-dioxopiperidine-3-)-1,3-dioxoisoindoline-4-)oxy)propyl)-4-(2-(trifluoromethoxy)phenyl)piperidine-4-carbonitrile], the IC50 fell in the range of 1000 to 20000 nM.

`O=C1CCC(N2Cc3c(CCCCCN4CCC5(CC4)C(=O)Nc4ccc(Cl)cc45)cccc3C2=O)C(=O)N1` (stereo not shown) [Example 133, 3-(4-(5-(5-chloro-2-oxospiro[indoline-3,4′-piperidine]-1′-)pentyl)-1-oxoisoindoline-2-)piperidine-2,6-dione]: the IC50 was less than 100 nM.

As to `CC(=O)N[C@@H](CCCc1cccc2c1CN(C1CCC(=O)NC1=O)C2=O)C(=O)N[C@H]1CCCc2ccccc21` (stereo partly drawn) [Example 179, (2S)-2-acetylamino-5-(2-(2,6-dioxopiperidine-3-)-1-oxoisoindoline-4-)-N—((S)-1,2,3,4-tetrahydronaphthyl-1-)pentanamide], the IC50 was less than 100 nM. To `CC(=O)N[C@@H](CCCc1cccc2c1CN(C1CCC(=O)NC1=O)C2=O)C(=O)NC(c1ccccc1)c1ccccc1` (stereo partly drawn) [Example 181, (2S)-2-acetylamino-N-benzhydryl-5-(2-(2,6-dioxopiperidine-3-)-1-oxoisoindoline-4-) pentanamide] belongs 100 to 1000 nM; to `N#CC1(c2c(Cl)cccc2Cl)CCN(CCCOc2cccc3c2CN(C2CCC(=O)NC2=O)C3=O)CC1` (stereo not shown) [Example 76, 4-(2,6-chlorophenyl)-1-(3-((2-(2,6-dioxopiperidine-3-)-1-oxoisoindoline-4-)oxy)propyl)piperidine-4-carbonitrile], less than 100 nM.

On to `N#CC1(c2cccc(OC(F)(F)F)c2)CCN(CCOc2cccc3c2CN(C2CCC(=O)NC2=O)C3=O)CC1` (stereo not shown) [Example 66, 1-(2-((2-(2,6-dioxopiperidine-3-)-1-oxoisoindoline-4-)oxy)ethyl)-4-(3-(trifluoromethoxy)phenyl)piperidine-4-carbonitrile], for which the IC50 was in the range of 100 to 1000 nM. In the case of `O=C1CCC(N2Cc3c(CCCCN4CCN(c5cccc(C(F)(F)F)c5)CC4)cccc3C2=O)C(=O)N1` (stereo not shown) [Example 220, 3-(1-oxo-4-(4-(4-(3-(trifluoromethyl)phenyl)piperazine-1-yl)butyl)isoindoline-2-yl)piperidine-2,6-dione] it was less than 100 nM; in that of `CC(=O)N[C@@H](CCCc1cccc2c1CN(C1CCC(=O)NC1=O)C2=O)C(=O)NCc1ccc(Oc2ccccc2)cc1` (stereo partly drawn) [Example 192, (2S)-2-acetylamino-5-(2-(2,6-dioxopiperidine-3-)-1-oxoisoindoline-4-)-N-(4-phenoxybenzyl)pentanamide], 100 to 1000 nM.

Consider `O=C1CCC(N2Cc3c(OCCCC(=O)N4CCN(c5cccc(Cl)c5Cl)CC4)cccc3C2=O)C(=O)N1` (stereo not shown) [Example 29, 3-(4-(4-(4-(2,3-dichlorophenyl)piperazine-1-)-4-oxobutoxy)-1-oxoisoindoline-2-)piperidine-2,6-dione], for which the IC50 was less than 100 nM. In the case of `C[C@]1(N2Cc3c(OCCCN4CCC(C#N)(c5cccc(Cl)c5)CC4)cccc3C2=O)CCC(=O)NC1=O` [Example 52, (S)-4-(3-chlorophenyl)-1-(3-((2-(3-methyl-2,6-dioxopiperidine-3-)-1-oxoisoindole-4-)oxy)propyl)piperidine-4-carbonitrile] it was 1000 to 20000 nM; in that of `N[C@@H](CCCc1cccc2c1CN(C1CCC(=O)NC1=O)C2=O)C(=O)Nc1ccccc1-c1cccnc1` (stereo partly drawn) [Example 172, (2S)-2-amino-5-(2-(2,6-dioxopiperidine-3-)-1-oxoisoindoline-4-)-N-(2-(pyridine-3-)phenyl)pentaneamide], greater than 20000 nM; in that of `N#CC1(c2ccccc2Cl)CCN(C(=O)CCCCOc2cccc3c2CN(C2CCC(=O)NC2=O)C3=O)CC1` (stereo not shown) [Example 85, 4-(2-chlorophenyl)-1-(5-((2-(2,6-dioxopiperidine-3-)-1-oxoisoindoline-4-)oxy)valeryl)piperidine-4-carbonitrile], less than 100 nM. In the case of `COc1ccc(C2(C#N)CCN(CCCCc3cccc4c3CN(C3CCC(=O)NC3=O)C4=O)CC2)c(OC)c1` (stereo not shown) [Example 256, 4-(2,4-dimethoxyphenyl)-1-(4-(2-(2,6-dioxopiperidin-3-yl)-1-oxoisoindoline-4-yl)butyl)piperidine-4-carbonitrile] it was 1000 to 20000 nM. In the case of `N#CC1(c2cccc(Cl)c2)CCN(CCCCCCc2cccc3c2CN(C2CCC(=O)NC2=O)C3=O)CC1` (stereo not shown) [Example 100, 4-(3-chlorophenyl)-1-(6-(2-(2,6-dioxopiperidine-3-)-1-oxoisoindoline-4-)hexyl)piperidine-4-carbonitrile] it was less than 100 nM; in that of `N#Cc1ccc(C2(C#N)CCN(CCCCCc3cccc4c3CN(C3CCC(=O)NC3=O)C4=O)CC2)cc1` (stereo not shown) [Example 268, 4-(4-cyanophenyl)-1-(5-(2-(2,6-dioxopiperidin-3-yl)-1-oxoisoindoline-4-yl)pentyl)piperidine-4-carbonitrile], 100 to 1000 nM; in that of `O=C1CCC(N2Cc3c(CCCCCN4CCN(c5nsc6ccccc56)CC4)cccc3C2=O)C(=O)N1` (stereo not shown) [Example 232, 3-(4-(5-(4-(benzisothiazol-3-yl)piperazin-1-yl)pentyl)-1-oxoisoindoline-2-yl) piperidine-2,6-dione], 1000 to 20000 nM. In the case of `Cc1ccc(NC(=O)[C@H](CCCc2cccc3c2CN(C2CCC(=O)NC2=O)C3=O)NC(=O)CCCCCO)cc1Cl` (stereo partly drawn) [Example 193, N-((2S)-1-(3-chloro-4-methylaniline)-5-(2-(2,6-dioxopiperidine-3-)-1-oxoisoindoline-4-)-1-oxopentyl-2-)-6-hydroxyhexanamide], the IC50 is less than 100 nM. To `N[C@@H](CCCc1cccc2c1CN(C1CCC(=O)NC1=O)C2=O)c1nc2cccc(Br)c2[nH]1` (stereo in doubt) [Example 195, 3-(4-((S)-4-amino-4-(7-bromo-1H-benzo[d]imidazole-2-)butyl)-1-oxoisoindoline-2-)piperidine-2,6-dione] belongs 100 to 1000 nM.
